# Patent US12685719B2, “Treatment of breast cancer with selective androgen receptor modulators and cyclin-dependent kinase 4/6 inhibitors” (UNIVERSITY OF TENNESSEE RESEARCH FOUNDATION, priority 2012, dated 2026)
# Tests used:
# AR = target: T1, AR (Homo sapiens, UniProt P10275); experiment: AR transactivation (GRE-LUC luciferase) in MDA-MB-231 cells; type: cell-based; conditions: cells transfected with AR and GRE-LUC
# T1 construct: expressed in transfected cells; host or cells: MDA-MB-231
# Description: Though AR transactivation assay was performed in HEK-293 cells, the ability of ligands to function as agonists or antagonists depends on cellular microenvironment. […] The cells were treated 24 h after transfection and luciferase assay performed 48 h after transfection.
# ER-β = target: T2, ER-β (Rattus norvegicus, UniProt Q62986); experiment: Transcriptional activation (luciferase) in HEK-293 cells, ER-β; type: cell-based; parameters: activation of ER-β: dose or concentration left out as unconfirmed
# T2 construct: expressed in transfected cells
# Description: Rat GR, MR, PR, ER-α and ER-β were individually cloned into a pCR3.1 vector backbone. Sequencing was performed to verify the absence of any mutations. HEK-293 cells were plated at 90,000 cells per well of a 24 well plate in Dulbecco's Minimal Essential Media supplemented with 5% charcoal-stripped FBS. The cells were transfected using Lipofectamine (Invitrogen, Carlsbad, CA) with […] GRE-LUC for GR, MR and PR and ERE-LUC for ER-α and ER-β, 0.5 ng CMV-LUC (Renilla luciferase) and 12.5-25 ng of the respective expression vector for each receptor. […] Luciferase assays were performed 48 h after transfection. Transcriptional activation values are represented as firefly luciferase normalized to Renilla luciferase.
# GR = target: T3, GR (Rattus norvegicus, UniProt P06536); experiment: Transcriptional activation (luciferase) in HEK-293 cells, GR; type: cell-based
# T3 construct: expressed in transfected cells
# T3 sequence (P06536 1-795): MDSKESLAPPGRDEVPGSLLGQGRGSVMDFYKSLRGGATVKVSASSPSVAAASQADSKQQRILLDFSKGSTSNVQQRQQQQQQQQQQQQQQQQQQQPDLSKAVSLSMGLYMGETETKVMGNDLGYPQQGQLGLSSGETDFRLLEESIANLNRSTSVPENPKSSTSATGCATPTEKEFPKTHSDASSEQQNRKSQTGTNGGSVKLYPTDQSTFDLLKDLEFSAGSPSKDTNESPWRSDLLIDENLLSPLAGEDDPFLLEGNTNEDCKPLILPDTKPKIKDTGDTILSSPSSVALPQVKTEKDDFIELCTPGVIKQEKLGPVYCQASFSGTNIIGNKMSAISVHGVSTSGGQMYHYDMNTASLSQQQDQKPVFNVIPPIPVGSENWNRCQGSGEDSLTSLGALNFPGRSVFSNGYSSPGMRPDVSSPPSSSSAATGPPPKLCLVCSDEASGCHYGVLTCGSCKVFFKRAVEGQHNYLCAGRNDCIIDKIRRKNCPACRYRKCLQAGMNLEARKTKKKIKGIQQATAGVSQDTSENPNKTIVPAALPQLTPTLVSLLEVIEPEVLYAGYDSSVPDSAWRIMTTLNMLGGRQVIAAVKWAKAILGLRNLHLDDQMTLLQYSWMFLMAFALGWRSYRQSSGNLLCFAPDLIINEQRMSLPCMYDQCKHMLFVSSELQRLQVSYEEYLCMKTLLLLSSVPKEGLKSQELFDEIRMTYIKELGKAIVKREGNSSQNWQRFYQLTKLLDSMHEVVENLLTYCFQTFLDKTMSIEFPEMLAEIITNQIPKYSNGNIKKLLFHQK
# Description: (§1) Rat GR, MR, PR, ER-α and ER-β were individually cloned into a pCR3.1 vector backbone. Sequencing was performed to verify the absence of any mutations. HEK-293 cells were plated at 90,000 cells per well of a 24 well plate in Dulbecco's Minimal Essential Media supplemented with 5% charcoal-stripped FBS. […] Luciferase assays were performed 48 h after transfection. Transcriptional activation values are represented as firefly luciferase normalized to Renilla luciferase.
# MR = target: T4, MR (Rattus norvegicus, UniProt P22199); experiment: Transcriptional activation (luciferase) in HEK-293 cells, MR; type: cell-based
# T4 construct: expressed in transfected cells
# T4 sequence (P22199 1-981): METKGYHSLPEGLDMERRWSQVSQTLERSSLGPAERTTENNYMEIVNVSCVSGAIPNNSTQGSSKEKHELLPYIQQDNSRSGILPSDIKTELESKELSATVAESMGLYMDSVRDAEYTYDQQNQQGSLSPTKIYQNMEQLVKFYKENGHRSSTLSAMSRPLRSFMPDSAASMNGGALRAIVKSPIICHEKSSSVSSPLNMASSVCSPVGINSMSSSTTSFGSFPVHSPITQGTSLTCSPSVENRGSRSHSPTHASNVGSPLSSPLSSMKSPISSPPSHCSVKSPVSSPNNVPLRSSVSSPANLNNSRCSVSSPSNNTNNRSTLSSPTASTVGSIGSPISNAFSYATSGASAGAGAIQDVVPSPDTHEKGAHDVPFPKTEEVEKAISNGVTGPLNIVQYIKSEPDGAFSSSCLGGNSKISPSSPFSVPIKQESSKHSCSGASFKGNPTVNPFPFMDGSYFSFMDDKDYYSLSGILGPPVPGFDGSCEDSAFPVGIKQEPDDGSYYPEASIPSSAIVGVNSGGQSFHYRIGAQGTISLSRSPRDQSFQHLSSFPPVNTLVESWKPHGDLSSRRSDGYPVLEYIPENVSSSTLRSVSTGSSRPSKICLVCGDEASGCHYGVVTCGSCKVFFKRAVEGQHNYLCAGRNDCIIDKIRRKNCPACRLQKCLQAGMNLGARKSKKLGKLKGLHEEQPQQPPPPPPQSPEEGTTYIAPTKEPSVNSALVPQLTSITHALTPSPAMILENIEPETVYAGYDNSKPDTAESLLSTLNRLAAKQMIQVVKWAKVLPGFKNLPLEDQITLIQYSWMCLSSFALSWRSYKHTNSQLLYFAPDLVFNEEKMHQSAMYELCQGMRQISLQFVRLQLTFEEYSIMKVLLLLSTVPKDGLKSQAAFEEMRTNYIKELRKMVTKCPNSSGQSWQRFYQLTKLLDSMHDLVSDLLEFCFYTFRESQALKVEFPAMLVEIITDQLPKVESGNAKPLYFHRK
# Description: as §1
# [1] = system: MDA-MB-231-AR triple negative breast cancer cells; experiment: MDA-MB-231-AR xenograft in female nude mice; type: in vivo; conditions: for body weight: all doses of Formula VIII and Formula IX
# Description: MDA-MB-231-AR triple negative breast cancer cells (2 million cells/mouse; MDA-MB-231 cells stably transfected with AR using lentivirus) were mixed with matrigel (1:1) and injected subcutaneously into the flanks of intact female nude mice (n=5/group). When the tumors reached 150-200 mm^3, the animals were separated into two groups, one receiving vehicle and the other receiving 30 mg/kg Formula VIII orally. Tumor volume was measured thrice weekly and % tumor growth inhibition (TGI) was calculated. At the end of 35 days of treatment, the animals were sacrificed, tumors excised, weighed, and collected for various analyses. Blood was collected and serum separated for drug concentration measurement.
# [2] = system: MDA-MB-231 breast cancer cells stably transfected with AR; experiment: Proliferation of MDA-MB-231 cells stably transfected with AR (Coulter counter); type: cell-based; conditions: 6 days
# Description: MDA-MB-231 cells stably transfected with AR using lentivirus were treated with the indicated ligands for 6 days and the number of cells counted using Coulter counter.
# [3] = agonist mode, all the tested concentrations
# T2 sequence (Q62986 whole entry): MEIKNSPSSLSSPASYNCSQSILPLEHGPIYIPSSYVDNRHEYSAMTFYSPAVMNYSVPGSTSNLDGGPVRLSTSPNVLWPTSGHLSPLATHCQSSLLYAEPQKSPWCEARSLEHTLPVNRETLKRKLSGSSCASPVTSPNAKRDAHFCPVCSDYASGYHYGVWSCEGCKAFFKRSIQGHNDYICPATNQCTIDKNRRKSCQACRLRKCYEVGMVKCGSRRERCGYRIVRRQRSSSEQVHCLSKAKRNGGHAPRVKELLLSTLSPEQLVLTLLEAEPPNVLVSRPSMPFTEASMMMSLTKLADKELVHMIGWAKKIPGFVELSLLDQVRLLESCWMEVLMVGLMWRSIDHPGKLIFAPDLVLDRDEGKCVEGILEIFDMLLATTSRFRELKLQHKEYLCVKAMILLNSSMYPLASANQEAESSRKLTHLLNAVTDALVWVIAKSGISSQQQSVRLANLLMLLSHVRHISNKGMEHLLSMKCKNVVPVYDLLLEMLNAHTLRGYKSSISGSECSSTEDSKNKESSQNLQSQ
# T1 sequence (P10275 whole entry): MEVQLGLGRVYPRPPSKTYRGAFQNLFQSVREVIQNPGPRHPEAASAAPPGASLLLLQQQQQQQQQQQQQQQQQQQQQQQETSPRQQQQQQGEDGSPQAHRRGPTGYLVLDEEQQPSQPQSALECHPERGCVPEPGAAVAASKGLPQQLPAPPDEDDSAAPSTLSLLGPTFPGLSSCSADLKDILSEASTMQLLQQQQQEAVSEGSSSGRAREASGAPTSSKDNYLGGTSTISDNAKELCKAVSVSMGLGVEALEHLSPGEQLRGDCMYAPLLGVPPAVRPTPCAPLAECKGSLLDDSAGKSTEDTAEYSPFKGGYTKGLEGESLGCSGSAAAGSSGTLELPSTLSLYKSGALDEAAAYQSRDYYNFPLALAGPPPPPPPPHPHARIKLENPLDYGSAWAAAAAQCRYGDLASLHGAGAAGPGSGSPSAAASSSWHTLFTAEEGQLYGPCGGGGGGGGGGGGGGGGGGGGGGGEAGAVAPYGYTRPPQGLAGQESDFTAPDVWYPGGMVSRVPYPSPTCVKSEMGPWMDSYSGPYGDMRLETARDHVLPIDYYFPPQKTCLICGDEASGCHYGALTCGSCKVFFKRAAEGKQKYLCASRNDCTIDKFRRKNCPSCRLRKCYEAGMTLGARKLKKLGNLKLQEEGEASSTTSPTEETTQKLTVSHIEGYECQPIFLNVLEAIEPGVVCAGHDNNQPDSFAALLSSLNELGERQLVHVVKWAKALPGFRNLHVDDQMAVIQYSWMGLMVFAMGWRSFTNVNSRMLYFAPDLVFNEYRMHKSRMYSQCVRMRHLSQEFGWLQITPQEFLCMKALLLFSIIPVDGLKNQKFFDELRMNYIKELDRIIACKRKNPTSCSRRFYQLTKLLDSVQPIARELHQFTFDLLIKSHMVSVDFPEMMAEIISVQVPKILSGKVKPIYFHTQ
Compound,AR agonist activity (transactivation) (AR),receptor-mediated transactivation of ERβ (stimulate or inhibit) (ER-β),"activation of ER-β (ER-β; agonist mode, highest tested concentration)",17β-estradiol-induced ER-β activity (ER-β; antagonist mode),receptor-mediated transactivation of GR (stimulate or inhibit) (GR),GR-mediated transactivation (GR; [3]),dexamethasone-induced GR-mediated transactivation (GR; antagonist mode),receptor-mediated transactivation of MR (stimulate or inhibit) (MR),MR-mediated transactivation (MR; [3]),aldosterone-induced MR-mediated transactivation (MR; antagonist mode),"toxicity / changes in body weight ([1]; 30 mg/kg orally, 35 days)",body weight [1],proliferation (number of cells) [2]
"C[C@](O)(COc1ccc(C#N)cc1)C(=O)Nc1ccc(C#N)c(Cl)c1 [Formula VIII, (S)-N-(3-chloro-4-cyanophenyl)-3-(4-cyanophenoxy)-2-hydroxy-2-methylpropanamide]",agonists of AR,do not stimulate or inhibit,failed to activate,failed to alter,do not stimulate or inhibit,did not induce,failed to alter,do not stimulate or inhibit,did not induce,failed to alter,without any associated toxicity or changes in body weight,increased body weight,inhibited the proliferation
"C[C@](O)(COc1ccc(C#N)cc1)C(=O)Nc1ccc(C#N)c(C(F)(F)F)c1 [Formula IX, (S)-N-(4-Cyano-3-(trifluoromethyl)phenyl)-3-(4-cyanophenoxy)-2-hydroxy-2-methylpropanamide]",agonists of AR,do not stimulate or inhibit,–,–,do not stimulate or inhibit,–,–,do not stimulate or inhibit,–,–,–,increased body weight,inhibited the proliferation
